Data set [1] addresses T1, Tubulin alpha (Homo sapiens) (UniProt P0DPH7+P68366+Q71U36+P68363+Q9BQE3+Q6PEY2+A6NHL2+Q9NY65). The data set can be described thus: Inhibition of tubulin alpha in human A2780 cells assessed as cell growth inhibition after 48 hrs by MTT assay. The class given is cell-based.
The test system of data set [2] is 3Y1 cell line. Description: Cell cycle arrest in rat 3Y1 cells assessed as accumulation at G2/M phase after 24 hrs by propidium iodide-staining based flow cytometry relative to (-)-Pironetin. Format: ADME. To be noted: 3y1, 24 h.
The nature of data set [3]: Drug level in human liver microsomes treated with pironetin assessed as compound formation after 30 mins by LC-MS/MS analysis. To be noted: 0.5 h. Format: ADME, Microsome.
In data set [4] the target is T1, Tubulin alpha (Homo sapiens). Description: Inhibition of tubulin alpha in human A2780CP cells assessed as cell growth inhibition after 48 hrs by MTT assay. The class given is cell-based.
Data set [5] is described as follows: Inhibition of tubulin alpha in human A2780 cells assessed as reduction in cell growth.
Data set [6] is described as follows: Half life in mouse liver microsomes in presence of NADPH regeneration system by LC-MS/MS analysis. The class given is ADME, Microsome.
The target in data set [7] is Cytochrome P450 2C9 (Homo sapiens, UniProt P11712). The data set can be described thus: Inhibition of CYP2C9 (unknown origin) using tolbutamide as substrate. Format: ADME.
Chain of Cytochrome P450 2C9 (P11712 whole entry): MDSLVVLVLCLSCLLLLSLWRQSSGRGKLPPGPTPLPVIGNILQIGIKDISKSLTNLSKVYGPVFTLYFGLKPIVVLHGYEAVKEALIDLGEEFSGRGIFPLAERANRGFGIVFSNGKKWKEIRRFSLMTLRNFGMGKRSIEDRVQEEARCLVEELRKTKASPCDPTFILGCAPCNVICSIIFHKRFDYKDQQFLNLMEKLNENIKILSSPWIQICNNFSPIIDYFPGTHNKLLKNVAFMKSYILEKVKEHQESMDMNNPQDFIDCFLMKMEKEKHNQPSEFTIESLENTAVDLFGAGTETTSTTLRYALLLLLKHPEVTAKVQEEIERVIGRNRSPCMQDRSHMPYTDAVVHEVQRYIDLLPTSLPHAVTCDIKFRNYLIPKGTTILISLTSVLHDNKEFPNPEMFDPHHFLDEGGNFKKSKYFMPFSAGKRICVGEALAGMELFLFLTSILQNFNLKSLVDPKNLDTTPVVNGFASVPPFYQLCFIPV
Data set [8] can be described thus: Half life in rat liver microsomes in presence of NADPH regeneration system by LC-MS/MS analysis. Format: ADME, Microsome.
Data set [9] deals with T2, Cytochrome P450 3A4 (Homo sapiens, UniProt P08684). Description: Inhibition of CYP3A4 (unknown origin) using testosterone as substrate. Format: ADME.
T2 sequence (P08684 whole entry): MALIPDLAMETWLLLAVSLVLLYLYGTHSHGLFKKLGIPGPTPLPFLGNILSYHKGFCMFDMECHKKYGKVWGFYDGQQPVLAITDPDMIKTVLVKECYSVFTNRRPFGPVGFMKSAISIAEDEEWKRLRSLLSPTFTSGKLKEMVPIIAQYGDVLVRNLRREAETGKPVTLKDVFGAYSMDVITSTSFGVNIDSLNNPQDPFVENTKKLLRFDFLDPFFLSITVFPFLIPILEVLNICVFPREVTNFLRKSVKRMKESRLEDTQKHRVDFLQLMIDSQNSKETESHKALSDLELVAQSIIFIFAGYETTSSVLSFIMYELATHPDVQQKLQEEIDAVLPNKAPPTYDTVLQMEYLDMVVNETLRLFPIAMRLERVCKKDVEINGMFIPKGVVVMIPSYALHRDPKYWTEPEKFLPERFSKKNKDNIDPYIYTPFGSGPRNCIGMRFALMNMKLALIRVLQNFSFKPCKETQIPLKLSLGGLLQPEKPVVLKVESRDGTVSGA
The nature of data set [10]: Half life in human liver microsomes in presence of NADPH regeneration system by LC-MS/MS analysis. The class given is ADME, Microsome.
Data set [11] can be described thus: Protein binding in rat plasma. To be noted: read-out: PPB (converted). The class given is ADME, cell-free.
For data set [12], the target named is T2, Cytochrome P450 3A4. Description: Inhibition of CYP3A4 (unknown origin) using midazolam as substrate. The class given is ADME.
Data set [13] in a line: Stability in rat serum assessed as compound remaining after 24 hrs. Particulars: read-out: Stability; call rule not given here. The class given is ADME, cell-free.
The nature of data set [14]: Protein binding in human plasma. Format: ADME, cell-free. Particulars: read-out: PPB (converted).
For data set [15], the target named is Cytochrome P450 2D6 (Homo sapiens, UniProt P10635). The data set can be described thus: Inhibition of CYP2D6 (unknown origin) using dextromethorphan as substrate. Format: ADME.
Chain of Cytochrome P450 2D6 (P10635 whole entry): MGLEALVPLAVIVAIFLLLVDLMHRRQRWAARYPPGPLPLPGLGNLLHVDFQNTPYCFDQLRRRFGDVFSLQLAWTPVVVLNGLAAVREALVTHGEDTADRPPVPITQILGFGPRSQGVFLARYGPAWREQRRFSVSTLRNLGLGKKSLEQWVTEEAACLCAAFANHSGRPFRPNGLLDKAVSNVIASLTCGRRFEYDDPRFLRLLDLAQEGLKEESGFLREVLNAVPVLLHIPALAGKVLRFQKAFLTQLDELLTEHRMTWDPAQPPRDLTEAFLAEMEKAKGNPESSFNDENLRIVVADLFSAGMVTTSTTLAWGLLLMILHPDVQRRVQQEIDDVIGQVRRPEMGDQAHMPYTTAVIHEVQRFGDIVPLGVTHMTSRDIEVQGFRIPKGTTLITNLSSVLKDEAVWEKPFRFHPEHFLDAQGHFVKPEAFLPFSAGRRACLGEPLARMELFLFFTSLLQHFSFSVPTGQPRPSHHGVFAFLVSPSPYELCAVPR
A short description of data set [16]: Protein binding in mouse plasma. Format: ADME, cell-free. To be noted: read-out: PPB (converted).
A short description of data set [17]: Stability in mouse serum assessed as compound remaining at 1.30 ml after 24 hrs by HPLC analysis. The class given is ADME, cell-free. To be noted: read-out: Stability.
The nature of data set [18]: Stability in human serum assessed as compound remaining at 1.10 mg after 24 hrs by HPLC analysis. The class given is ADME, cell-free. To be noted: read-out: Stability.

The values that follow come from ChEMBL document CHEMBL4368919, “Identification of the Metabolic Profile of the α-Tubulin-Binding Natural Product (-)-Pironetin” (J Med Chem, 2019).

SMILES strings stand for the structures.

Consider `C/C=C/C[C@H](C)[C@@H](O)[C@@H](C)[C@H](O)C[C@H]1OC(=O)C=C[C@H]1CC`, for which the results for the GI50 in data set [1] and in data set [4] were 29.6 nM and 82.3 nM, respectively. In addition, the Activity entry in [2] was “Toxic”. In addition, in [3], the Drug uptake entry was “Active”.
Take `CC[C@@H]1C=CC(=O)O[C@@H]1C[C@@H](O)[C@H](C)[C@H](OC)[C@@H](C)C[C@@H]1O[C@H]1C` (relative stereo): the values for the GI50 in [1] and in data set [4] were 218 nM and 1010 nM, respectively. For the same compound, in data set [2], the “fold change (FC)” value turned out to be 25. Moreover, the Drug uptake result in data set [3] was “Active”. In addition, the IC50 in data set [5] is reported as 540 nM.
For `C/C=C/C[C@H](C)[C@@H](OC)[C@@H](C)[C@H](O)C[C@H]1OC(=O)C=C[C@H]1CC` [PIRONETIN], the figures for the t1/2 in [6], in data set [8] and in [10] were < 15 min, < 15 min and 7 min, respectively. The “inhibition (INH)” value in data set [7], in [9], in data set [12] and in data set [15] was “Active” in each case. The results for the fraction unbound in [11], in data set [14] and in [16] were 0.07, 0.13 and 0.02, respectively. Besides, the remaining at 24 h in data set [13] stood at 56%; in [17] it was 35%; in data set [18], 50%. The figures for the concentration for 50% growth inhibition (GI50) in data set [1] and in [4] were 22.2 nM and 22.3 nM, respectively. The IC50 in data set [5] is on record as 26 nM.
